Assay results reported in patent US20130224110A1, “USE OF ADENOSINE RECEPTOR SIGNALING TO MODULATE PERMEABILITY OF BLOOD-BRAIN BARRIER” (CORNELL UNIVERSITY, priority 2010, published 2013).

Tested on: CD4+ lymphocytes in the brain and spinal cord
Assay: CD4+ lymphocyte infiltration of brain and spinal cord after EAE induction (immunohistochemistry)
Format: in vivo
Conditions: wild type mice, day 15 post-EAE induction, vs DMSO
Procedure: Anesthetized mice were perfused with PBS, and brains, spleens, and spinal cords were isolated and snap frozen in Tissue Tek-OCT medium. Five μm sections (brains in a sagittal orientation) were affixed to Supefrost/Plus slides (Fisher), fixed in acetone, and stored at −80° C. For immunostaining, slides were thawed and treated with 0.03% H2O2 in PBS to block endogenous peroxidase, blocked with Casein (Vector) in normal goat serum (Zymed), and then incubated with anti-CD45 (YW62.3), anti-CD4 (RM4-5), or anti-ICAM-1 (3E2). Slides were incubated with biotinylated goat anti-rat Ig (Jackson ImmunoResearch) and streptavidin-HRP (Zymed) and developed with an AEC (Red) substrate kit (Zymed) and a hematoxylin counterstain. […]
As CD73 catalyzes the breakdown of AMP to adenosine and ARs are expressed in the CNS (Tsutsui et al., “A1 Adenosine Receptor Upregulation and Activation Attenuates Neuroinflammation and Demyelination in a Model of Multiple Sclerosis,” J. Neurosci. 24:1521-1529 (2004)); Rosi et al., The Influence of Brain Inflammation Upon Neuronal Adenosine A2B Receptors,” J. Neurochem. 86:220-227 (2003), which are hereby incorporated by reference in their entirety), it was next determined if AR signaling is important during EAE progression. […] Since CD73 is highly expressed on the choroid plexus (FIG. 6C), it was next determined if ARs are also expressed on the choroid plexus. […]

SMILES: Nc1nc2c(cnn2CCc2ccccc2)c2nc(-c3ccco3)nn12 [SCH58261, 2-(2-Furanyl)-7-(2-phenylethyl)-7H-pyrazolo[4,3-e][1,2,4]triazolo[1,5-c]pyrimidin-5-amine]
- frequency of CD4+ lymphocytes in the brain and spinal cord: significantly lower frequency of CD4^+ lymphocytes in the brain and spinal cord
